Entries after “also recorded” stand apart in the source; their conditions may differ. Like-named read-outs stand apart in the source and are kept apart here.
What was measured:
[1] = format: in vivo, human; settings: for Effect of grapefruit juice on cilofexor exposure (AUC and Cmax): grapefruit juice 16 ounces; for Effect of grapefruit juice on cilofexor exposure (AUC and Cmax) / Effect of multiple-dose voriconazole on cilofexor exposure (AUC): vs cilofexor alone; for Effect of multiple-dose voriconazole on cilofexor exposure (AUC): voriconazole 200 mg BID
[2] = system: CYP2C8; settings: in vitro; cited from earlier work
[3] = system: CYP3A; settings: in vitro; cited from earlier work
[4] = system: CYP2C9; settings: in vitro; cited from earlier work
[5] = system: OATP1B1; settings: in vitro; ref data on file, Gilead Sciences, Inc.; cited from earlier work
[6] = system: OATP1B3; settings: in vitro; ref data on file, Gilead Sciences, Inc.; cited from earlier work
[7] = system: OATP2B1; settings: in vitro; ref data on file, Gilead Sciences, Inc.; cited from earlier work
[8] = cited from earlier work
[9] = cited from earlier work; remark: listed apart in the source
[10] = system: P-gp; settings: in vitro; cited from earlier work
[11] = system: BCRP; settings: in vitro; cited from earlier work
[12] = system: NTCP; settings: in vitro; cited from earlier work
[13] = system: bile salt export pump; settings: in vitro; cited from earlier work
[14] = system: organic anion transporter (OAT)1; settings: in vitro; cited from earlier work
[15] = system: OAT3; settings: in vitro; cited from earlier work
[16] = system: organic cation transporter (OCT)2; settings: in vitro; cited from earlier work
[17] = system: multidrug and toxin extrusion protein (MATE) 1; settings: in vitro; cited from earlier work
[18] = system: MATE2-K; settings: in vitro; cited from earlier work
[19] = system: CYP2C8; settings: in vitro; rCYP2C8 showing the fastest rate of metabolism; cited from earlier work
[20] = system: CYP2C19; settings: in vitro; cited from earlier work
[21] = system: CYP3A; settings: in vitro; cited from earlier work; remark: listed apart in the source
[22] = system: P-glycoprotein (P-gp); settings: in vitro; cited from earlier work
[23] = system: breast cancer resistance protein (BCRP); settings: in vitro; cited from earlier work
[24] = system: sodium taurocholate co-transporting polypeptide (NTCP); settings: in vitro; cited from earlier work
[25] = system: OATP1B1; settings: in vitro; cited from earlier work
[26] = system: OATP1B3; settings: in vitro; cited from earlier work
[27] = system: OATP2B1; settings: in vitro; cited from earlier work
[28] = dose range of 10 to 100 mg; cited from earlier work
[29] = format: in vivo, human; settings: for Effect of multiple-dose cilofexor on midazolam exposure (AUC and Cmax): midazolam 2 mg, vs midazolam alone; for Effect of multiple-dose cilofexor on pravastatin exposure (AUC and Cmax): pravastatin 40 mg; for Effect of multiple-dose cilofexor on pravastatin exposure (AUC and Cmax) / Effect of multiple-dose cilofexor on rosuvastatin exposure (AUC and Cmax): vs alone; for Effect of multiple-dose cilofexor on rosuvastatin exposure (AUC and Cmax): rosuvastatin 10 mg
[30] = following multiple-dose rifampin 600 mg
[31] = with multiple-dose gemfibrozil 600 mg BID
[32] = with single-dose cyclosporine 600 mg
[33] = with single-dose rifampin 600 mg

With `O=C(O)c1ccnc(N2CC(O)(c3ccc(OCc4c(-c5c(Cl)cccc5Cl)noc4C4CC4)cc3Cl)C2)c1` [Cilofexor] the “Cilofexor AUC compared with cilofexor alone” value [1, 30] was 33%, the “Cilofexor Cmax compared with cilofexor alone” value [1, 30] was 35% and the “Effect of grapefruit juice on cilofexor exposure (AUC and Cmax)” value [1] was “similar”. For the same compound, the “Effect of grapefruit juice on cilofexor exposure (AUC and Cmax)” value ([1]; listed as cilofexor) was “did not affect”, the “Effect of multiple-dose voriconazole on cilofexor exposure (AUC)” value [1] was “similar” and the “Effect of multiple-dose voriconazole on cilofexor exposure (AUC)” value ([1]; listed as cilofexor) was “did not affect; also recorded: did not impact”. The “Cilofexor AUC compared with cilofexor alone” value [1, 31] was 175%, the “Cilofexor Cmax compared with cilofexor alone” value [1, 31] was 139% and the “Cilofexor Cmax lower than cilofexor alone” value ([1]; with multiple-dose voriconazole) was 23%. For the same compound, the “Median cilofexor t½ longer than cilofexor alone” value ([1]; with single-dose cyclosporine) was “approximately 2.5 fold”, the “Cilofexor AUC compared with cilofexor alone” value [1, 32] was 651% and the “Cilofexor Cmax compared with cilofexor alone” value [1, 32] was 512%. For the same compound, the “Median cilofexor t½ longer than cilofexor alone” value ([1]; with single-dose rifampin) was “approximately 2.8 fold”, the “Cilofexor AUC compared with cilofexor alone” value [1, 33] was 795% and the “Cilofexor Cmax compared with cilofexor alone” value [1, 33] was 547%. The Mechanism-based inhibition [2] was “not a mechanism-based inhibitor”, the Mechanism-based inhibition [3] was “not a mechanism-based inhibitor” and the Mechanism-based inhibition [4] was “not a mechanism-based inhibitor”. For the same compound, the IC50 [5] was 680 nM, the IC50 [6] was 410 nM and the IC50 [7] was 210 nM. For the same compound, the “Protein binding in human plasma” value [8] was over 99%, the “Cilofexor dose eliminated in feces” value [9] was 96.7% and the “Dose remaining as intact cilofexor (feces)” value [9] was 34.1%. The “Inhibition of P-gp” value [10] was “little to no inhibition”, the “Inhibition of BCRP” value [11] was “little to no inhibition” and the “Inhibition of NTCP” value [12] was “little to no inhibition”. For the same compound, the “Inhibition of bile salt export pump” value [13] was “little to no inhibition”, the “Inhibition of OAT1” value [14] was “little to no inhibition” and the “Inhibition of OAT3” value [15] was “little to no inhibition”. The “Inhibition of OCT2” value [16] was “little to no inhibition”, the “Inhibition of MATE1” value [17] was “little to no inhibition” and the “Inhibition of MATE2-K” value [18] was “little to no inhibition”. For the same compound, the “Substrate of CYP2C8” value [19] was “substrate”, the “Substrate of CYP2C19” value [20] was “substrate” and the “Substrate of CYP3A” value [21] was “substrate”. The “Substrate of P-gp” value [22] was “substrate”, the “Substrate of BCRP” value [23] was “substrate” and the “Substrate of NTCP” value [24] was “substrate”. The “Substrate of OATP1B1” value [25] was “substrate”, the “Substrate of OATP1B3” value [26] was “substrate” and the “Substrate of OATP2B1” value [27] was “substrate”. The “Dose proportionality of plasma exposure” value [28] was “less than dose-proportional”.

With `Cc1ncc2n1-c1ccc(Cl)cc1C(c1ccccc1F)=NC2` [midazolam] the “Effect of multiple-dose cilofexor on midazolam exposure (AUC and Cmax)” value [29] was “did not affect; also recorded: did not alter” and the “Effect of multiple-dose cilofexor on midazolam exposure (AUC and Cmax)” value ([29]; listed as Midazolam) was “similar”.

With `CC(C)c1c(C(=O)Nc2ccccc2O)c(-c2ccccc2)c(-c2ccc(F)cc2)n1CC[C@@H](O)C[C@@H](O)CC(=O)O` [o-OH-atorvastatin, o-hydroxyatorvastatin] the “o-OH-atorvastatin AUC and Cmax with multiple-dose cilofexor compared to atorvastatin alone” value ([29]; atorvastatin 10 mg) was “similar”.

For `CC[C@H](C)C(=O)O[C@H]1C[C@H](O)C=C2C=C[C@H](C)[C@H](CC[C@@H](O)C[C@@H](O)CC(=O)O)[C@H]21` [pravastatin], the “Effect of multiple-dose cilofexor on pravastatin exposure (AUC and Cmax)” value [29] was “did not affect; also recorded: did not alter” and the “Effect of multiple-dose cilofexor on pravastatin exposure (AUC and Cmax)” value ([29]; listed as Pravastatin) was “similar”.

For `CC(C)c1nc(N(C)S(C)(=O)=O)nc(-c2ccc(F)cc2)c1/C=C/[C@@H](O)C[C@@H](O)CC(=O)O` [rosuvastatin], the “Effect of multiple-dose cilofexor on rosuvastatin exposure (AUC and Cmax)” value [29] was “did not alter” and the “Effect of multiple-dose cilofexor on rosuvastatin exposure (AUC and Cmax)” value ([29]; listed as Rosuvastatin) was “similar”.

— article PMC10085937 (Clinical Pharmacokinetics, 2023)
